Data set [1] is described as follows: Dynamic light scattering (DLS) compound aggregation threshold. Type of data set: physicochemical. How it is done: Identification of compound aggregation threshold was performed using DLS Zetasizer Nano ZS (Malvern Pananalytical, Worcestershire, UK). 100 µL of samples were measured in low-volume plastic micro cuvettes (BrandTech Scientific, CT, USA) at 25 °C using default size measurement settings. […] Mdivi-1 and DRP1i27 were serially diluted three-fold from 500 µM until the volume distribution of particle size was similar to that of the DMSO control. To specifically determine aggregation threshold, further dilution was carried out between concentrations where aggregation was first observed.

Data set [2] deals with T1, human Drp1 isoform 3 (Homo sapiens, UniProt O00429).
T1 construct: His tag; made in house; host or cells: E. coli Rosetta (DE3), pET21b vector
T1 sequence (O00429 1-699 isoform O00429-4): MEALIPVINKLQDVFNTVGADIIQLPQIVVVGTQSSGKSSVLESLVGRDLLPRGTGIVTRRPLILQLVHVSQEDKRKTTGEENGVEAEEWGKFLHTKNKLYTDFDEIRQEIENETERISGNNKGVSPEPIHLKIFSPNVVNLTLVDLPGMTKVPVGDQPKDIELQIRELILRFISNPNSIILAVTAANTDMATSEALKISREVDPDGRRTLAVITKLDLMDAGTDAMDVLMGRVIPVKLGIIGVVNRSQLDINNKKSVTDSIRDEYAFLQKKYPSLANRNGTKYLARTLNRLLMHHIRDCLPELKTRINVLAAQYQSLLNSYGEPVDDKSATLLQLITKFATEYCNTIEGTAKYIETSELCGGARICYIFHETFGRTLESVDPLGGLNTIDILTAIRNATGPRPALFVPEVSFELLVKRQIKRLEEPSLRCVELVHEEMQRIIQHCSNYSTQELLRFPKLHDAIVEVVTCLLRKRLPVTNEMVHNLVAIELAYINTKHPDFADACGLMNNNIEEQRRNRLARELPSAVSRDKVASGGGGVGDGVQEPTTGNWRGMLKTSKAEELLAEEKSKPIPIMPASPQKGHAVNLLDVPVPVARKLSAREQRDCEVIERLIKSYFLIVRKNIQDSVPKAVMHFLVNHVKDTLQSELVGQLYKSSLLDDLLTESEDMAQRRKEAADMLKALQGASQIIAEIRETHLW
In words: Microscale thermophoresis (MST) binding. The conditions noted are these: human Drp1 isoform 3, 5% DMSO. The protocol:
The recombinant human Drp1 protein (His-tagged human Drp1 isoform 3, kindly provided by Professor Michael Ryan, Monash University, Australia) was generated as described previously. Briefly, cDNA for human Drp1 (isoform 3) was cloned into pET21b vector and transformed in Rosetta (DE3) competent cells (Novagen, MA, Merck Millipore). Transformed cells were propagated in Luria–Bertani broth and protein expression was initiated by the addition of 0.5 mM isopropyl β-D-1-thiogalactopyranoside. Cells were harvested by centrifugation at 3,500 g for 20 min at 4 °C, and the pellet was re-suspended in lysis buffer containing 50 mM Tris HCl (pH 7.3), 500 mM NaCl, 50 mM imidazole, 2.5 mM β-mercaptoethanol, 0.01 mM LEUPEP, 0.1 mM AEBSF and 1 mM benzaminidium chloride. The cells were lysed using a pre-cooled EmulsiFlex-C5 homogenizer (Avestin, Ontario, Canada) on ice and clarified by centrifugation at 17,000 g for 30 min. The clarified cell lysate was loaded onto a 5 mL Nickel Chelating Sepharose Fast Flow column (GE Healthcare, Buckinghamshire, UK) and Drp1 protein was eluted with wash buffer containing 50 mM Tris–HCl (pH 7.6), 150 mM NaCl, 2.5 mM β-mercaptoethanol and 400 mM imidazole. […]
Compound binding was assessed in against the human Drp1 isoform-3 protein using MST Monolith NT.115 instrument (NanoTemper Technologies, Mȕnchen, Germany). […]
On the technique in general: Microscale thermophoresis detects binding through changes in fluorescence in a small temperature gradient.

Data set [3] relates to Human foreskin fibroblasts (HFF-1). In words: Hydrogen peroxide-induced oxidative stress, cell death. To be noted: 50 µM compound, 3 mM hydrogen peroxide, compared to DMSO control. In kind it is cell-based. How it is done:
Human foreskin fibroblasts (HFF-1, ATCC, VA, USA) were treated with 3 mM hydrogen peroxide plus vehicle control (0.1% DMSO), Mdivi-1 (50 µM) or individual compound at 50 µM. After 2.5–3 h of incubation at 37 °C in a humidified 5% CO2 incubator, cells were stained with 1 μg/mL propidium iodide and 3 μg/mL Hoechst 33258 to determine the percentage of dead cells. Images were captured at 20 × objective with an inverted microscope (Olympus IX71). The number of dead cells (propodium iodide positive) was counted and expressed as a percentage over total number of cells (Hoechst 33258 positive). At least 100 cells were counted per group for each independent experiment.

Another data set has as its system Drp1 KO MEFs. In words: Mitochondrial morphology analysis in Drp1 KO MEF. Type of data set: cell-based, mouse. To be noted: Drp1 KO MEFs, 5, 10 or 50 µM. How it is done:
Human foreskin fibroblasts and Drp1 wildtype and KO MEF (kindly provided by Professor Hiromi Sesaki, Johns Hopkins University, USA)[28],[29] were transduced with pAS2.EYFP.puro lentiviruses (RNAiCore, Academia Sinica, Taiwan) carrying the mitochondrial-targeted EGFP sequence as described in Kalkhoran et al.[30]. Cells were then treated with DRP1i27 (5, 10 or 50 µM) or 0.1% DMSO vehicle control for 24 h.
Mitochondrial morphology in HL-1 cells were visualised by immunostaining of mitochondrial Hsp60 antibody (Abcam, MA, USA). Images were acquired using Olympus BX60 fluorescence microscope at 600 × magnification and analysed using Fiji imaging software (ImageJ v1.53c). Cells were categorised into predominantly (> 50%) having fused or fragmented mitochondria. At least 100 cells were analysed for each treatment group.

The target in data set [4] is T1, human Drp1 isoform 3. In words: Surface plasmon resonance (SPR) binding. The conditions noted are these: human Drp1 isoform 3, 25 °C, 2% DMSO. The protocol: The recombinant human Drp1 protein (His-tagged human Drp1 isoform 3, kindly provided by Professor Michael Ryan, Monash University, Australia) was generated as described previously. Briefly, cDNA for human Drp1 (isoform 3) was cloned into pET21b vector and transformed in Rosetta (DE3) competent cells (Novagen, MA, Merck Millipore). Transformed cells were propagated in Luria–Bertani broth and protein expression was initiated by the addition of 0.5 mM isopropyl β-D-1-thiogalactopyranoside. […]
All SPR experiments were performed on a Biacore T200 instrument (GE Healthcare Life Sciences, Uppsala, Sweden) at 25 °C in the presence of HEPES buffered saline containing 20 mM phosphate (pH 7.5), 137 mM NaCl, 2.7 mM KCl and 0.05% Tween-20 (HBS + P). […] Sensor surface was activated with 1:1 mixture of 0.4 M EDC and 0.1 M NHS for 7 min, followed by incremental injections of the protein to reach ~ 8000 RU (flow rate 10 μL/minute) for a calculated maximum analyte binding capacity (Rmax) of 30–50 RU. […]
Compounds were dissolved in 100% dimethyl sulfoxide (DMSO) and then added to HBS + P at a final DMSO concentration of 2%. […] SPR results were analysed using the Biacore T200 Evaluation Software v.1.
A general note: In SPR one partner is held on a chip, and binding of the other changes the refractive index at the surface.

The source of these data is article PMC9747717, “A novel small molecule inhibitor of human Drp1” (Scientific Reports, 2022).

Broadly, the Kd is the constant that tells how readily two partners part at equilibrium.

Several values for one entry are separate records, joined by “and”; a condition that tells them apart may be missing. Identical values can stand only once.

For `Cc1nc[nH]c1CN1C[C@@H]2CC[C@H](C1)N(Cc1ccc(-c3cc[nH]n3)o1)C2` [DRP1i27], the aggregation threshold in data set [1] (PBS, 2% DMSO) was 130 µM; in data set [1] (PBS, 5% DMSO), 350 µM; in data set [1] (with 0.05% Tween-20, DMSO content not specified), “at least 500 µM”. Moreover, the Kd at human Drp1 isoform 3 [2] is 191 µM and 190 µM; at human Drp1 isoform 3 [4] it was 286 µM and 287 µM. Further, the “cell death induced by hydrogen peroxide” value in data set [3] is recorded as “significant reduction”. The “cellular networks of mitochondria” value with Drp1 KO MEFs was “no significant effect”.
